Values quoted from earlier work, collected in PMC9377007, “An Unexpected Deuterium-Induced Metabolic Switch in Doxophylline” (ACS Medicinal Chemistry Letters, 2022).

Assays:
[1] = tested on: PDE-III and IV isozymes; parameters: method as in PMID 1328102; details: ref [30]; cited from earlier work
[2] = tested on: antibronchospastic and antiasthmatic effects; parameters: method as in PMID 1652045; details: ref [31]; cited from earlier work

## Cn1c(=O)c2c(ncn2CC(=O)O)n(C)c1=O [T-COOH, 7-theophylline acetic acid]
[1]
  inhibition of PDE-III and IV isozymes: specific inhibition

## Cn1c(=O)c2c(ncn2CCO)n(C)c1=O [etophylline, 7-hydroxyethyltheophylline]
[2]
  antibronchospastic and antiasthmatic effects relative to doxophylline: significantly less active than doxophylline
